Data as given in the supplement of paper PMC10307832.

Legend:
Assay in all cases: relative viability (nuclei count vs DMSO), 5 days (fraction); higher = more cells survive
Serdemetan + Tozasertib = compound: c1ccc2c(CCNc3ccc(Nc4ccncc4)cc3)c[nH]c2c1 [Serdemetan] + Cc1cc(Nc2cc(N3CCN(C)CC3)nc(Sc3ccc(NC(=O)C4CC4)cc3)n2)n[nH]1 [Tozasertib] (partner 0.1 µM)
How it was run: (§1)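 A single step with final 0.05% Triton X-100, 1% formaldehyde and 1 ug/ml Hoechst fixed the cells and stained nuclei 5 days after treatment. Lung cancer cell lines in 1536-well plates had been treated by pin tool the day after seeding with one drug alone or a fixed anchor-drug dose plus five library-drug doses (not always all listed) in √10 steps, and nuclei were counted on 4× images. Relative viability is the ratio of nuclei in treated wells to nuclei in vehicle wells, taken as the median of duplicate plates.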

Serdemetan + Bortezomib = compound: c1ccc2c(CCNc3ccc(Nc4ccncc4)cc3)c[nH]c2c1 [Serdemetan] + CC(C)C[C@H](NC(=O)[C@H](Cc1ccccc1)NC(=O)c1cnccn1)B(O)O [Bortezomib] (partner 0.002 µM)
How it was run: as §1

Serdemetan + Pemetrexed = compound: c1ccc2c(CCNc3ccc(Nc4ccncc4)cc3)c[nH]c2c1 [Serdemetan] + Nc1nc2[nH]cc(CCc3ccc(C(=O)N[C@@H](CCC(=O)O)C(=O)O)cc3)c2c(=O)[nH]1 [Pemetrexed] (partner 0.2 µM)
How it was run: as §1

Selisistat + Dasatinib = compound: C1CC(C2=C(C1)C3=C(N2)C=CC(=C3)Cl)C(=O)N [Selisistat] + Cc1nc(Nc2ncc(C(=O)Nc3c(C)cccc3Cl)s2)cc(N2CCN(CCO)CC2)n1 [Dasatinib] (partner 0.075 µM)
How it was run: as §1

Cell Line	relative viability (Serdemetan + Tozasertib; first compound 0.04 µM)	relative viability (Serdemetan + Tozasertib; first compound 0.1265 µM)	relative viability (Serdemetan + Tozasertib; first compound 0.4 µM)	relative viability (Serdemetan + Tozasertib; first compound 1.265 µM)	relative viability (Serdemetan + Tozasertib; first compound 4 µM)	relative viability (Serdemetan + Bortezomib; first compound 0.04 µM)	relative viability (Serdemetan + Bortezomib; first compound 0.1265 µM)	relative viability (Serdemetan + Bortezomib; first compound 0.4 µM)	relative viability (Serdemetan + Bortezomib; first compound 1.265 µM)	relative viability (Serdemetan + Bortezomib; first compound 4 µM)	relative viability (Serdemetan + Pemetrexed; first compound 0.04 µM)	relative viability (Serdemetan + Pemetrexed; first compound 0.1265 µM)	relative viability (Serdemetan + Pemetrexed; first compound 0.4 µM)	relative viability (Serdemetan + Pemetrexed; first compound 1.265 µM)	relative viability (Serdemetan + Pemetrexed; first compound 4 µM)	relative viability (Selisistat + Dasatinib; first compound 0.4 µM)	relative viability (Selisistat + Dasatinib; first compound 1.265 µM)	relative viability (Selisistat + Dasatinib; first compound 4 µM)	relative viability (Selisistat + Dasatinib; first compound 12.65 µM)	relative viability (Selisistat + Dasatinib; first compound 40 µM)
NCI-H2023	0.377	0.359	0.309	0.298	0.153	0.74	0.985	0.9	0.485	0.28	0.213	0.223	0.227	0.206	0.217	0.495	0.497	0.524	0.539	0.512
NCI-H2085	0.813	0.797	0.77	0.708	0.574	1.11	1.13	1.06	0.723	0.674	0.91	0.818	0.773	0.798	0.642	0.262	0.219	0.204	0.27	0.257
NCI-H2087	0.282	0.237	0.308	0.202	0.2	0.738	0.812	0.759	0.375	0.572	0.704	0.611	0.643	0.404	0.28	1.08	0.837		0.82	0.777
NCI-H2126	0.867	0.874	0.786	0.832	0.79	1.12	1.12	1.11	0.934	1.12	0.671	0.707	0.579	0.601	0.78	0.705	0.597	0.525	0.601	0.616
NCI-H2228	0.267	0.246	0.371	0.128	0.162	1.34	1.02	0.974	0.404	0.301	0.349	0.364	0.325	0.312	0.253	0.68	0.577	0.449	0.536	0.557
NCI-H2347	0.623	0.602	0.572	0.588	0.399	1.05	0.752	1.2	1.01	0.744	0.498	0.429	0.42		0.445	0.343	0.299	0.171	0.344	0.31
NCI-H2405	0.7	0.704	0.734	0.659	0.662	0.976	0.915	0.905	0.738	0.949	1.04	1.02	1.1	0.609	0.983	0.221	0.189	0.178	0.204	0.276
NCI-H3122	0.369	0.431	0.382	0.406	0.337	1.03	0.955	1.06		1.08	0.182	0.201	0.197	0.178	0.2	0.999	0.736	0.639	0.842	0.791
PC-3 [JPC-3]	0.841	0.795	0.784	0.929	0.87	0.868	0.861		0.755	0.812	1.12	1.07	0.991	0.829	1.05	0.998	0.976	0.884	0.975	0.976
